# Earlier results in patent publication US6071521A, “Pharmaceutical composition having an antitumor activity and a process for preparation thereof” (priority 1989, dated 2000).
# Conditions: water, alcohol, chloroform, and chlorinated ethylene
smiles,measurement,value
"C=C1C=CC(=O)O1 [protoanemonin, Protoanemonin]",solubility,"dissolved in water, alcohol, chloroform, and chlorinated ethylene"
